Experimental findings from patent US10933068B2, “Modulators of DUX4 for regulation of muscle function” (GENEA BIOCELLS USA (HOLDINGS), INC., priority 2016, dated 2021) are described below.

In data set [1] the test system is Normal cell lines (Genea 002 and Genea 015) and an FSHD-affected cell line (Genea 096). Kind of data set: Phenotypic marker screen (Example 2): myogenesis, MF20 and myotube length. Format: cell-based, human. To be noted: compound added for 24 hours. The procedure:
(§1) Briefly, stem cell lines were cultured in commercially available media, mTeSR (Stem Cell Technologies) or M2 (Genea Biocells) and dissociated into single cells using Passaging Solution (Genea Biocells). Cells were plated in Myogenic Induction Medium to induce myogenic differentiation and incubated at 37° C. and 5% CO2 for 7 to 10 days while performing media changes every other day. Once confluent, cells were dissociated into single cells using Passaging Solution and replated in Myoblast Medium (Genea Biocells) while performing media changes every other day. After 7-10 days the medium was switched to Myotube Medium (Genea Biocells) without any further media changes.
In one example, experiments are set up according to Example 1 with cells being cultured in collagen 1-coated optical bottom 96-well plates. […] High-content screening is performed to quantitatively measure the proportion of DUX4, Ki67 and MyoD-positive cells as well as myotube diameter and the number of nuclei per myotube.
Normal cell lines (Genea 002 and Genea 015) and an FSHD-affected cell line (Genea 096) were cultured and differentiated according to Example 1. […] Cells were further differentiated to myotubes and analyzed 7 days later at the end of the myotube stage (see FIG. 2) by immunofluorescence staining for MyoD, Ki67 and MF20.

The subject of data set [2] is normal (Genea016) and FSHD-affected (Genea049 and Genea050) cell lines. The data set can be described thus: Timing of compound contact: MF20-positive myotubes. The settings on record: 24 hours treatment, analyzed at the end of the myotube stage. It is filed as cell-based, human. How it is done: as §1, with “changes. After 4-7 days many multi-nucleated myotubes were observed and the cells were analyzed using a suitable assay.” for “changes.”
(§2) In another example, normal (Genea016) and FSHD-affected (Genea049 and Genea050) cell lines were differentiated according to Example 1. A DNA methyltransferase inhibitor (Compound #1) (ASK10) or a histone methyltransferase inhibitor (Compound #2) (ASK19) was added for 24 hours either at the beginning of the myoblast stage (Group 1) or at the end of the myoblast stage (Group 2). Cells were further differentiated to myotubes and analyzed 7 days later at the end of the myotube stage (see FIG. 2). Effects on cell counts (FIGS. 11A and 11B) and MF20-positive myotubes (FIGS. 12A and 12B) were assessed.

Data set [3] has as its system DUX4-GFP reporter. The data set can be described thus: Rescue of ASK10- / ASK10 analog-induced DUX4-GFP by ASK19 pre-treatment. Format: cell-based, human. How it is done: Genea's FSHD-affected Gen049 human Embryonic Stem Cells (hESCs) were cultured on geltrex (Thermo Fisher) using the feeder-free mTeSR system (StemCell Technologies). Cells were transduced with a lentivirus coding for a synthetic DUX4-responsive promoter driving a nuclear turboGFP reporter gene (Rickard et al., 2015) and selected using G418 antibiotic (Thermo Fisher). Myogenic differentiation was induced using the Genea Biocells muscle differentiation protocol (Caron et al., 2016). Reporter stem cells were treated with Accutase (StemCell Technologies) and plated as single cells at 5200 cells/cm2, then changed to Stage 1 Myogenic Induction Medium (Genea Biocells). Media was changed every other day for 10 days. Myogenic precursors were then re-seeded by treatment with Passaging Solution (Genea Biocells) followed by Neutralizing Solution (Genea Biocells), were pelleted, and were plated at 2500 cells/cm2 in Stage 2 Myoblast Medium (Genea Biocells).
In rescue experiments, Stage 2 Day 1 cells were then treated with either 1 uM ASK19 or DMSO vehicle for 24 hours. Precursors were then converted to myoblasts by culture in Stage 2 Medium for 7 days with media changes every second day until confluence. Myoblasts were passaged and seeded at 9000 cells/cm2 in 96 well format, allowed to grow to confluence, and treated in Stage 2 Medium for indicated time (0-48 hours) with 0.01 uM-3 uM of ASK10, ASK10 analog, DMSO vehicle, or media only (FIGS. 15A-15B). After treatment, confluent myoblasts were switched to Stage 3 Myotube Medium (Genea Biocells). Cells were imaged hourly for phase and DUX4-GFP reporter fluorescence with the Incucyte live cell imaging system (Essen Bioscience) and Incucyte analysis software reported GFP+ events/mm2. After imaging, cells were fixed in 10% Formalin (Thermo Fisher) for 15 minutes and stained for 2 hours using PBS (Invitrogen) with 5% BSA (Thermo Fisher), 0.25% Triton-X (Thermo Fisher), and 1:5000 Hoechst (Thermo Fisher) DNA dye. Nuclei were quantified using the In Cell 6000 imaging and analysis suite.

The test system of data set [4] is DUX4 reporter in the FSHD-affected Genea049 reporter cell line. The data set can be described thus: DUX4 reporter, high-content imaging. It is filed as cell-based, human. To be noted: added for 24 hours at the end of the myoblast stage; analyzed 7 days later. How it is done: (§3) Lentivirus constructs were used to stably integrate a DUX4 reporter into human embryonic stem cell lines (FIG. 5). Cells were plated in collagen I-coated 12-well plates (Corning BIOCOAT™-Cat #354500) in M2 hESC maintenance medium (Genea Biocells). Since cell lines grow at different rates and may optimally transduce at distinct cell densities, each line was plated at four different cell densities and transduced for 2 hours using a vector preparations diluted at 1:20 (50 ul/ml) in M2 medium containing 8 ug/ml polybrene. A pilot “kill curve” was established using the same non-transfected cell lines to help define the baseline antibiotic concentration required during the selection process. Based on the results, all transduced cells were selected with 300 ug/ml of G418 for at least 10 days. The antibiotic selected cells were further expanded in M2 (2× T175 flasks for each cell line) and samples were cryopreserved as stocks of 0.5 to 1×10^6 cells/vial.
In another example, Genea049 reporter cell line was differentiated according to Example 1 and the compounds were added for 24 hours at the end of the myoblast stage. Cells were further differentiated to myotubes and analyzed 7 days later at the end of the myotube stage (see FIG. 2) by fixation, counterstaining nuclei with Hoechst and visualizing nuclei and the reporter by high-content imaging.

Data set [5] has the same test system. The data set can be described thus: DUX4 reporter, time-lapse video fluorescence microscopy. It is filed as cell-based, human. To be noted: added for 24 hours at the beginning of the myoblast stage; analyzed continuously. The procedure:
as §3
In another example, experiments are set up according to Example 1 with FSHD-affected DUX4 reporter cells being cultured in collagen I-coated 96-well plates. […] The cells are continuously observed by time-lapse video microscopy (IncuCyte Zoom, Essen Bioscience) and the number of GFP-positive (DUX4-expressing) nuclei are detected and quantified throughout the culture period. […]

The subject of data set [6] is normal (Genea016) and FSHD-affected (Genea049 and Genea050) cell lines. The data set can be described thus: Timing of compound contact: cell counts. It is filed as cell-based, human. The procedure: as §1, with “changes. After 4-7 days many multi-nucleated myotubes were observed and the cells were analyzed using a suitable assay.” for “changes.”
as §2

The subject of data set [7] is Normal cell lines (Genea 002 and Genea 015) and an FSHD-affected cell line (Genea 096). Kind of data set: Phenotypic marker screen (Example 2): cell count / toxicity. It is filed as cell-based, human. The settings on record: compound added for 24 hours; for toxicity (cell count): analyzed at the end of the myotube stage, cell lines tested overall. The procedure: as §1
In one example, experiments are set up according to Example 1 with cells being cultured in collagen 1-coated optical bottom 96-well plates. At the end of the culture period cells are fixed with 4% formalin and immunofluorescence stained for DUX4, Ki67, MyoD and/or MF20 or MHC. […] Staining with MF20 or MHC is used to visualize myotube morphology. High-content screening is performed to quantitatively measure the proportion of DUX4, Ki67 and MyoD-positive cells as well as myotube diameter and the number of nuclei per myotube.
Normal cell lines (Genea 002 and Genea 015) and an FSHD-affected cell line (Genea 096) were cultured and differentiated according to Example 1. Compounds were added for 24 hours either at the beginning of the myoblast stage or at the end of the myoblast stage. Cells were further differentiated to myotubes and analyzed 7 days later at the end of the myotube stage (see FIG. 2) by immunofluorescence staining for MyoD, Ki67 and MF20.

The subject of another data set is DUX4 expression. Kind of data set: Chaetocin induction of DUX4 expression, immunofluorescence staining. Format: cell-based, human. The settings on record: myotubes from FSHD-affected cell lines, DUX4 E5-5 antibody. How it is done:
as §1, with “changes. After 4-7 days many multi-nucleated myotubes were observed and the cells were analyzed using a suitable assay.” for “changes.”
(§4) In myotubes from FSHD-affected cell lines DUX4 expression was observed by immunofluorescence staining using DUX4 E5-5 antibody, either spontaneously or by transfecting cells with a DUX4 expression vector (FIG. 3). In some cases, the expression of DUX4 in myogenic cells may be a rare event. Thus, to increase the assay window and sensitivity, chaetocin was used to increase the number of cells expressing DUX4 (FIG. 4A). […] In some examples, compounds may be screened in the presence of 50-200 nM chaetocin, a compound described to result in elevated levels of DUX4 expression in human myoblast cultures (FIG. 2).

In data set [8] the test system is myotubes from FSHD-affected cell lines. The data set can be described thus: Chaetocin toxicity, total nuclei count. It is filed as cell-based, human. The settings on record: at 50-100 nM. How it is done: as §4
The test system of data set [9] is Genea049 reporter cell line. Kind of data set: Cell death / overall cell numbers by video microscopy. It is filed as cell-based, human. To be noted: 24 hours pulse at the beginning of the myoblast stage. The procedure:
In another example, Genea049 reporter cell line was differentiated according to Example 1 and the compounds were added for 24 hours at the beginning of the myoblast stage. Cells were further differentiated to myotubes (see FIG. 2) and analyzed continuously by video fluorescence microscopy using an Incucyte Zoom instrument (Essen Bioscience).

Data set [10] deals with DUX4-GFP reporter. Kind of data set: Chemically induced DUX4-GFP reporter induction (ASK10 and analogs). It is filed as cell-based, human. From the text:
Cells were transduced with a lentivirus coding for a synthetic DUX4-responsive promoter driving a nuclear turboGFP reporter gene ([…] et al., 2015) and selected using G418 antibiotic (Thermo Fisher). Myogenic differentiation was induced using the Genea Biocells muscle differentiation protocol (Caron et al., 2016). […] Media was changed every other day for 10 days. Myogenic precursors were then re-seeded by treatment with Passaging Solution (Genea Biocells) followed by Neutralizing Solution (Genea Biocells), were pelleted, and were plated at 2500 cells/cm2 in Stage 2 Myoblast Medium (Genea Biocells). […] After treatment, confluent myoblasts were switched to Stage 3 Myotube Medium (Genea Biocells). Cells were imaged hourly for phase and DUX4-GFP reporter fluorescence with the Incucyte live cell imaging system (Essen Bioscience) and Incucyte analysis software reported GFP+ events/mm2. […] Nuclei were quantified using the In Cell 6000 imaging and analysis suite. The system as described herein can be used as a sensitive low-, medium- or high-throughput screening assay to identify compounds that suppress DUX4 following an experimental procedure as outlined in FIG. 19. […] Test compounds are added either at the beginning of differentiation stage 2 or stage 3 and may be present throughput the experiment.

The test system of data set [11] is FSHD-affected Gen049 human Embryonic Stem Cells (hESCs). Kind of data set: ASK10 cytotoxicity in DUX4-GFP induction experiments. It is filed as cell-based. To be noted: FIG. 11A cited.
From the text: Precursors were then converted to myoblasts by culture in Stage 2 Medium for 7 days with media changes every second day until confluence. […] After treatment, confluent myoblasts were switched to Stage 3 Myotube Medium (Genea Biocells). Cells were imaged hourly for phase and DUX4-GFP reporter fluorescence with the Incucyte live cell imaging system (Essen Bioscience) and Incucyte analysis software reported GFP+ events/mm2. […] Nuclei were quantified using the In Cell 6000 imaging and analysis suite.

Structures are written as SMILES.

Take `CC[C@H](C)n1cc(C)c2c(C(=O)NCc3c(C)cc(C)[nH]c3=O)cc(-c3ccc(N4CCNCC4)nc3)cc21` [ASK19, GSK126]: the “myogenesis, cells expressing MF20” value in data set [1] (analyzed at the end of the myotube stage) is “more MF20-positive cells”. Further, the myotube length entry in data set [1] (all cell lines tested) was “longer myotubes”. For the same compound, the “MF20-positive myotubes (myogenesis)” value in data set [2] was “dose-dependent increase”. The EC50 (usually the midpoint of the concentration-response curve) in the data set with DUX4-GFP reporter [3] (ASK10- and ASK10-15-induced, tentative, read-out: EC50 of rescue of induced DUX4-GFP production) lay within 250 to 500 nM. In addition, in the data set with DUX4-GFP reporter [3] (ASK19 pre-treatment then ASK10, FIG. 18), the “GFP+ events over time, ASK19/ASK10 curve” value was “extends along the bottom of the graph”. The “GFP+ events over time, ASK19/ASK10-15 curve” value with DUX4-GFP reporter [3] (ASK19 pre-treatment then ASK10-15, FIG. 18) is given as “extends along the bottom of the graph”. Besides, the “rescue of ASK10- and ASK10 analog-induced DUX4 activation” value in the data set with DUX4-GFP reporter [3] (pre-treatment with ASK19) was “rescues”. Besides, the DUX4-positive cells entry is reported as “no effect” in [4] and “suppressed DUX4 expression and/or function” in [5]. Besides, the “toxicity (cell counts)” value in [6] (any of the cell lines under any treatment regimen) was “not toxic”. The “toxicity (cell count)” value in data set [7] was “not toxic”.
As to `CN1C(=O)[C@@]23C[C@]4([C@]56C[C@@]78SS[C@@](CO)(C(=O)N7[C@H]5Nc5ccccc56)N(C)C8=O)c5ccccc5N[C@@H]4N2C(=O)[C@]1(CO)SS3` [chaetocin], the “chaetocin concentration found to induce DUX4 expression” value with DUX4 expression was 50 to 100 nM. For the same compound, the toxicity entry in data set [8] is recorded as “only mild toxicity”.
Take `Nc1ncn([C@H]2C[C@H](O)[C@@H](CO)O2)c(=O)n1` [ASK10, decitabine]: in data set [9], the “time of cell death after the compound had been removed” value was in the range of 6 to 7 days. Also, in the data set on DUX4-GFP reporter [10] (Homo sapiens, DUX4-GFP cell number per well, read-out: EC50 at which the most significant DUX4 expression induction was detected), the EC50 is not below 1000 nM. For the same compound, the “DUX4 expression activation versus vehicle control” value with DUX4-GFP reporter [10] (about 48 hours post-exposure) is on record as 12-15 fold. The “time at which DUX4 induction plateaus” value with DUX4-GFP reporter [10] (post-exposure) is recorded as “about 120 hours”. In addition, the “toxicity, normal versus FSHD-affected myoblasts” value in [6] (24 hours treatment) is “much more toxic for normal myoblasts than for FSHD-affected myoblasts”. The “toxicity (cell counts), FSHD” value in [6] (added at the end of the myoblast stage (Group 2), FSHD) is “not toxic”. Also, the “toxicity (cell counts), normal” value in [6] (added at the end of the myoblast stage (Group 2), normal) was “only mildly toxic”. Besides, the “toxicity (cell counts)” value in data set [6] (added for 24 hours at the beginning of the myoblast stage (Group 1)) was “significant toxicity at higher doses”. The “toxicity (cell count)” value in [7] was “highly toxic at higher doses”. Further, the “toxicity to FSHD-affected cells” value in data set [7] (FSHD-affected cells (Genea 096)) is listed as “less so”. In data set [11], the cytotoxicity entry is “did not display any noticeable cytotoxicity”.
